This note sets out measurements from publication PMC6637691, “Phenothiazinium Dyes Are Active against Trypanosoma cruzi In Vitro” (BioMed Research International, 2019).

Data set [1] relates to T. cruzi amastigotes. Nature of the data set: Amastigote growth inhibition assay (T. cruzi-LacZ, CPRG readout). Type of data set: cell-based. To be noted: Trypanosoma cruzi, LLC-MK2, amastigotes in LLCMK2 cells, 72 h, 37°C, three independent assays. The protocol: T. cruzi (Tulahuen strain) was maintained in cultures of LLCMK2 cells and cultivated in RMPI supplemented with 10% fetal bovine serum (FBS) at 37°C, 5% CO2. The parasites used in proliferation and flow cytometry assays were genetically modified to express the enzyme β-galactosidase (T. cruzi-LacZ [9]). To illustrate the inhibition of parasite proliferation, a T. cruzi expressing GFP (G-GFP strain [10]) was used.
(§1) LLCMK2 cells were distributed in 96-well plates (5×10^4 cells/ml) and infected with T. cruzi-LacZ at a multiplicity of infection (MOI) of 10:1 (5×10^5 cells/ml). The cultures were incubated for 48 h, 37°C, and 5% CO2 and washed with phosphate buffered saline (PBS). Serial dilutions of compounds (starting from 10 μM) in RPMI were added to the cultures in duplicate and incubated for 72 h, 37°C,and 5% CO2. […] After incubation, the media were removed and followed by the reaction with chlorophenol red-β-D-galactopyranoside (CPRG) buffer (200 μM CPRG, 2% Trion X-100, and 50 mM MgCl2 in PBS) for 4 h, 37°C. The plates were read at 570 nm in ELISA reader (Synergy™ H1, Biotek). Three independent assays were performed.
(§2) The percentages of proliferation and cytotoxicity were calculated using the mean absorbance of the compound-free control and the absorbance of each treatment. The IC50 and the combination index (CI) were achieved using Compusyn software (http://www.combosyn.com/) and the selective index (CC50/IC50) was also determined. From CI values, synergistic (CI < 1), and antagonistic (CI > 1) interactions were identified. For oxidative stress and mitochondrial activity, data were analyzed by one-way ANOVA followed by a Dunnett's post hoc test (compared to nontreated groups) on GraphPad 5.0 software.

Data set [2] can be described thus: Cytotoxicity (MTT assay). As to conditions: rhesus monkey; LLCMK2 cells, 72 h, MTT assay. Type of data set: cell-based. How it is done:
(§3) The cytotoxic effects of the phenothiazinium dyes in LLCMK2 cells was measured by Thiazolyl Blue Tetrazolium Bromide (MTT) assay, as described in [12]. A suspension of LLCMK2 cells (5 × 10^4/ml) in RPMI supplemented with 10% FBS was distributed in 96-well plates and cultivated (37°C, 5% CO2) to the confluence. […] The cultures were incubated for 72 h, 37°C, and 5% CO2. For the measurement of the […], the media were carefully removed and an MTT solution (500 μg/ml MTT in PBS) was added. The reaction was performed for 4 h at 37°C, 5% CO2. After the reaction, the MTT solution was discarded and the formazan crystals solubilized with DMSO. The absorbance was measured in an ELISA reader (Synergy™ H1, Biotek) at 570 nm. The percentages of proliferation and cytotoxicity were calculated using the mean absorbance of the compound-free control and the absorbance of each treatment. The IC50 and the combination index (CI) were achieved using Compusyn software (http://www.combosyn.com/) and the selective index (CC50/IC50) was also determined. […] For oxidative stress and mitochondrial activity, data were analyzed by one-way ANOVA followed by a Dunnett's post hoc test (compared to nontreated groups) on GraphPad 5.0 software.

Data set [3] concerns LLCMK2 cells. Briefly: Cytotoxicity (MTT assay). To be noted: CC50 LLCMK2 / IC50 amastigotes. Type of data set: cell-based. How it is done:
as §3
A general note: Tetrazolium assays rely on reduction of a dye to a coloured formazan, in cell work by metabolically active cells.

In data set [4] the test system is T. cruzi amastigotes. Nature of the data set: Drug combination assay against amastigotes (CPRG, Compusyn). Type of data set: cell-based. As to conditions: Trypanosoma cruzi. The protocol:
as §1, §2
As references, isolated compounds of each combination were evaluated concomitantly in the same plate. The inhibition percentage was calculated in comparison to the nontreated group and the IC50 and CI values were achieved using Compusyn software.

Data set [5] relates to T. cruzi trypomastigotes. Briefly: ROS measurement (DCFDA, flow cytometry) in trypomastigotes. Type of data set: cell-based, Trypanosoma cruzi. To be noted: 4 × IC50, 2 h. How it is done: (§4) LLCMK2 cells in 75 cm^2 flasks were cultivated to confluence and were infected with 1 × 10^7 T. cruzi trypomastigotes. […] The infected cells were centrifuged for 10 min, 3000 g, and washed with PBS and suspended in trypsin to separate cells and parasites. The cultures were distributed in 1.5 ml microtubes (~ 1 × 10^6 trypomastigotes/tube) and incubated with 4 × IC50 of compounds at 37°C, 5% CO2 for 2 h. Menadione (MN), a classic inducer of cellular oxidative stress, was used as the positive control of ROS production as previously described in [14]. After treatment, the cultures were centrifuged for 10 minutes, 3000 g, and washed with PBS and suspended in trypsin. […] Similarly, the mitochondrial membrane potential was determined after incubation with 5 μM JC-1 under the same conditions. […] In polarized mitochondria, the dye forms J-aggregates, emitting red fluorescence. The cultures were washed with PBS and analyzed in a BD FACS-Canto (BD Biosciences) flow cytometer with the FACSDiva (BD) 6.1.3 software. Due to the size, host cells (infected and noninfected) and trypomastigotes were separately analyzed by flow cytometry. The median of fluorescence of oxidized DCF and the populations with active mitochondria were measured with excitation/emission at 488 nm/529 nm and […]. […]
(In general: In flow cytometry, cells or beads pass a laser one at a time.)

Data set [6] concerns noninfected LLCMK2 cells. Nature of the data set: ROS measurement (DCFDA, flow cytometry) in noninfected cells. Type of data set: cell-based. To be noted: 4 × IC50, 2 h. How it is done:
as §4

For data set [7], the system named is T. cruzi trypomastigotes. Briefly: Mitochondrial membrane potential (JC-1, flow cytometry) in trypomastigotes. As to conditions: 4 × IC50, 2 h. Type of data set: cell-based, Trypanosoma cruzi. How it is done:
as §4

Where [8] appears, read: 72 h, read-out: IC50 (compound 1), compound 1 alone, evaluated in the same plate as the combination.
Setting [9] is: 72 h, compound 2 alone, evaluated in the same plate as the combination, read-out: IC50 (compound 2).

Structures are written as SMILES. A value given as a limit tells only on which side of the number the result lay.

The term IC50 denotes the point on the concentration scale where inhibition reaches its midpoint. By CC50 is commonly meant the concentration giving 50% cytotoxicity. With `O=C(Cn1ccnc1[N+](=O)[O-])NCc1ccccc1` [BZ, Benznidazole], the IC50 in data set [1] was determined as 3410 ± 380 nM; in data set [4] (setting [8]), 3320 nM. Further, in data set [2], the CC50 at 72 h is > 200000 nM. Further, the “SI (selectivity index, CC50/IC50)” value in data set [3] is given as > 58.65. Besides, the “ROS production in trypomastigotes” value in data set [5] is “no ROS production was detected”. Moreover, the “ROS production in noninfected cells” value in data set [6] is “increased ROS production”. Moreover, the “Mitochondrial membrane potential in trypomastigotes” value in data set [7] is “did not affect mitochondria”.

Consider `Cc1cc(N(C)C)cc2[s+]c3cc(N(C)C)cc(C)c3nc12` [DMMB, 1,9–Dimethyl Methylene Blue], for which the values for the IC50 in data set [1] and in data set [4] (setting [9]) were 80 ± 20 nM and 71 nM, respectively. In addition, in data set [2], the half-maximal cytotoxic concentration (CC50) at 72 h was determined as 4460 ± 230 nM. For the same molecule, the “SI (selectivity index, CC50/IC50)” value in data set [3] is recorded as 51.26.

Consider `CN(C)c1ccc2nc3ccc(=[N+](C)C)cc-3sc2c1` [MB, Methylene Blue], for which the IC50 was 440 ± 150 nM in data set [1]; 560 nM in data set [4] (72 h, compound 1 alone, evaluated in the same plate as the combination, read-out: IC50 (compound 1)); 477 nM in data set [4] (setting [9]). The CC50 at 72 h in data set [2] came to 16800 ± 1180 nM. The “SI (selectivity index, CC50/IC50)” value in data set [3] was found to be 37.40.

On to `CC1=CC(=O)c2ccccc2C1=O` [MN, Menadione], for which, in data set [5], the “ROS production in trypomastigotes” value is “increased ROS production”. Moreover, the “ROS production in noninfected cells” value in data set [6] is recorded as “increased ROS production”. In addition, in data set [7], the “Mitochondrial membrane potential in trypomastigotes” value is on record as “reduced the membrane potential”.

On to `CCNc1cc2[s+]c3cc(NCC)c(C)cc3nc2cc1C` [NMB, New Methylene Blue], for which the IC50 is 90 ± 10 nM in data set [1], 100 nM in data set [4] (setting [9]) and 122 nM in data set [4] (setting [8]). In addition, the CC50 at 72 h in data set [2] worked out at 4190 ± 1300 nM. Also, the “SI (selectivity index, CC50/IC50)” value in data set [3] is recorded as 44.71.

As for `Cc1cc2nc3ccc(N(C)C)cc3[s+]c2cc1N` [TBO, Toluidine Blue O], the IC50 worked out at 270 ± 110 nM in data set [1]; 381 nM in data set [4] (setting [8]); 322 nM in data set [4] (72 h, read-out: IC50 (compound 2), compound 2 alone, evaluated in the same plate as the combination); 322 nM in data set [4] (read-out: IC50 (compound 2), compound 2 alone, evaluated in the same plate as the combination). In addition, in data set [2], the CC50 at 72 h came out at 7930 ± 5220 nM. Besides, the “SI (selectivity index, CC50/IC50)” value in data set [3] is on record as 28.61.
